In patent US20240335431A1, “1-H-PYRROLO[2,3-c]PYRIDINE COMPOUNDS” (Acerta Pharma B.V., priority 2023, published 2024) one finds IC50 and Ki data, which are given here for 17 compounds.

Molecules are shown by their SMILES. pIC50, pKi: −log10 of the molar value. Like-named read-outs stand apart in the source and are kept apart here. Some results are limits rather than exact numbers.

The subject of one experiment is MOLM-13 cells. As to the kind of experiment: Proliferation assay, MOLM-13 (CellTiter-Glo, 7 days). The class given is cell-based, human. The method, boiled down:
(§1)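 Cells seeded at 125 (MOLM-13), 300 (MV4;11), 75 (OCI-AML3) or 200 (HEL) per well were exposed to 3.16-fold compound dilutions (0.1% DMSO) for 7 days at 37° C. Viability by CellTiter-Glo luminescence, normalized to DMSO (100%) and day-0 plate (0%); IC50 from one-site dose-response fit.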
In general terms: Cellular ATP, detected with luciferase, serves as a proxy for viable cell number.

For a further experiment, the system named is OCI-AML3 cells. Nature of the experiment: Proliferation assay, OCI-AML3 (CellTiter-Glo, 7 days). The class given is cell-based, human. The method, boiled down: as §1
Another experiment deals with muscarinic M2 receptor (Homo sapiens (Human), UniProt P08172). As to the kind of experiment: Muscarinic M2 receptor binding assay (assay 1). The note with it: [3H]AF-DX 384 2 nM, Cheng Prusoff. The method, then: Cell membrane homogenates (60 μg protein) were incubated for 60 minutes at 22° C. with 2 nM [3H]AF-DX 384 in the absence or presence of the test compound in a buffer containing 50 mM Tris-HCl (pH 7.4), 120 mM NaCl, 5 mM KCl, 5 mM MgCl2, and 1 mM EDTA. Nonspecific binding was determined in the presence of 1 μM atropine. Following incubation, the samples were filtered rapidly under vacuum through glass fiber filters (GF/B, Packard) presoaked with 0.3% PEI and rinsed several times with ice-cold 50 mM Tris-HCl using a 96-sample cell harvester (Unifilter, Packard). The filters were dried then counted for radioactivity in a scintillation counter (Topcount, Packard) using a scintillation cocktail (Microscint 0, Packard). The results were expressed as a percent inhibition of the control radioligand specific binding, from which the Ki was calculated. Data were analyzed using software developed at Cerep (Hill software) and validated by comparison with data generated by the commercial software SigmaPlot®4.0 for Windows® (© 1997 by SPSS Inc.). The inhibition constant, Ki, was calculated using the Cheng Prusoff equation:
where L=concentration of ligand in the assay, and Kd=affinity of the ligand for the receptor. The standard reference compound was methoctramine, which was tested in each experiment at several concentrations to obtain a competition curve from which its IC50 was calculated.

For a further experiment, the system named is MV4;11 cells. Nature of the experiment: Proliferation assay, MV4;11 (CellTiter-Glo, 7 days). In kind it is cell-based, human. The note with it: read-out: MV-4-11 IC50. The method, boiled down: as §1

Chain of muscarinic M2 receptor (P08172 whole entry): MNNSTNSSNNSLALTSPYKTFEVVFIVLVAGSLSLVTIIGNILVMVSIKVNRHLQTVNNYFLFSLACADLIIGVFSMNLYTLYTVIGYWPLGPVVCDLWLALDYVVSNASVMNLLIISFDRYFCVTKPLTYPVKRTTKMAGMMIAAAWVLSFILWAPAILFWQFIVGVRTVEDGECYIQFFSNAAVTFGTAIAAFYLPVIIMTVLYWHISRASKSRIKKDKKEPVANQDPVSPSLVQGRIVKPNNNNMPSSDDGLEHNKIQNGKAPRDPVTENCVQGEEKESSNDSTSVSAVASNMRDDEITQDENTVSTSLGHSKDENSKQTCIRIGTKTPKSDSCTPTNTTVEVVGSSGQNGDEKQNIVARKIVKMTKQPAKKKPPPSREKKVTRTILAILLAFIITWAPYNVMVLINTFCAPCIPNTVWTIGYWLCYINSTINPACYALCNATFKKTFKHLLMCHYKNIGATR

As usually defined, the pIC50 is the IC50 on a negative log10 scale, so that one unit is a factor of ten. The term pKi denotes the negative decadic logarithm of the Ki, by convention in mol/L. A higher pKi goes with a low Ki. For `CC(C)N(C(=O)c1cc(F)ccc1-n1cc(C(=O)C2CCN(C(=O)[C@H]3NC[C@@H]4CC[C@@H]43)CC2)c2ccncc21)C(C)C` (relative stereo) [Example 25, rel-2-(3-(1-((1R,2R,5S)-3-Azabicyclo[3.2.0]heptane-2-carbonyl)piperidine-4-carbonyl)-1H-pyrrolo[2,3-c]pyridin-1-yl)-5-fluoro-N,N-diisopropylbenzamide], the pIC50 in the experiment on MOLM-13 cells (Homo sapiens, MOLM-13, 168 h) was 7.30; with OCI-AML3 cells (Homo sapiens, OCI-AML-3, 168 h), 7.43; with MV4;11 cells (Homo sapiens, MV4-11, 168 h), 7.62. The pKi at muscarinic M2 receptor is 5.72.
As to `CCN(C(=O)c1cc(F)ccc1-n1c(C)c(C(=O)C2CCN(C(=O)[C@@H]3CCC4(CC4)N3)CC2)c2ccncc21)C(C)C` (single isomer, unassigned) [Example 49-2], the pIC50 is 7.10 in the experiment on MOLM-13 cells; less than 6.63 in the experiment with OCI-AML3 cells (Homo sapiens, OCI-AML-3, 168 h); 7.47 in the experiment on MV4;11 cells. For the same compound, the pKi on muscarinic M2 receptor is 4.56.
Turning to `CCN(C(=O)c1cc(F)ccc1-n1c(C)c(C(=O)C2CCN(C(=O)[C@@H]3CCC(C)(C)N3)CC2)c2ccncc21)C(C)C` (single isomer, unassigned) [Example 50-2], the pIC50 in the experiment with MOLM-13 cells was 7.36; with OCI-AML3 cells (Homo sapiens, OCI-AML-3, 168 h), 7.20; with MV4;11 cells (Homo sapiens, MV4-11, 168 h), 7.41. Moreover, the pKi at muscarinic M2 receptor is 4.46.
Turning to `Cc1c(C(=O)[C@@H]2CCN(C(=O)[C@H]3NC[C@@H]4C[C@@H]43)[C@@H](C)C2)c2ccncc2n1-c1ccc(F)cc1C(=O)N(CC(F)(F)F)C(C)C` (single isomer, unassigned) [Example 53-3, 2-(3-((2R*,4S*)-1-((1S,2S,5R)-3-Azabicyclo[3.1.0]hexane-2-carbonyl)-2-methylpiperidine-4-carbonyl)-2-methyl-1H-pyrrolo[2,3-c]pyridin-1-yl)-5-fluoro-N-isopropyl-N-(2,2,2-trifluoroethyl)benzamide], the pIC50 was 7.82 in the experiment on MOLM-13 cells, 7.85 in the experiment on OCI-AML3 cells and 7.89 in the experiment with MV4;11 cells. Besides, at muscarinic M2 receptor, the pKi was 4.70.
With `Cc1c(C(=O)C2CCN(C(=O)[C@H]3NC[C@@H]4C[C@@H]43)CC2)c2ccncc2n1-c1ccc(F)cc1C(=O)N(C(C)C)[C@H](C)C(F)(F)F` (single isomer, unassigned) [Example 57-1], the pIC50 with MOLM-13 cells is 7.03; in the experiment with OCI-AML3 cells (Homo sapiens, OCI-AML-3, 168 h), 7.11; with MV4;11 cells (Homo sapiens, MV4-11, 168 h) it was 7.29. The pKi at muscarinic M2 receptor is less than 4.00.
With `CC(C)N(C(=O)c1cc(F)ccc1-n1cc(C(=O)[C@H]2CCN(C[C@H]3CC[C@H](NS(C)(=O)=O)CC3)C2)c2ccncc21)C(C)C` [Example 1, 5-Fluoro-N,N-diisopropyl-2-(3-((S)-1-(((1r,4S)-4-(methylsulfonamido)-cyclohexyl)methyl)pyrrolidine-3-carbonyl)-1H-pyrrolo[2,3-c]pyridin-1-yl)benzamide], the negative-log IC50 (pIC50) was 6.83 in the experiment with MOLM-13 cells (Homo sapiens, MOLM-13, 168 h); 6.50 in the experiment on OCI-AML3 cells (Homo sapiens, OCI-AML-3, 168 h); 6.78 in the experiment with MV4;11 cells (Homo sapiens, MV4-11, 168 h). On muscarinic M2 receptor, the pKi was 5.09.
As for `CC(C)N(C(=O)c1cc(F)ccc1-n1cc(C(=O)[C@@H]2CCN(C(=O)[C@H]3N[C@@H]4CC[C@H]3C4)C2)c2ccncc21)C(C)C` [Example 3, 2-(3-((R)-1-((1R,3S,4S)-2-Azabicyclo[2.2.1]heptane-3-carbonyl)pyrrolidine-3-carbonyl)-1H-pyrrolo[2,3-c]pyridin-1-yl)-5-fluoro-N,N-diisopropylbenzamide], the pIC50 in the experiment with MOLM-13 cells (Homo sapiens, MOLM-13, 168 h) is 7.01; in the experiment on OCI-AML3 cells (Homo sapiens, OCI-AML-3, 168 h), 6.95; in the experiment on MV4;11 cells (Homo sapiens, MV4-11, 168 h) it was 7.00.
On the same counts, the results for `CC(C)N(C(=O)c1cc(F)ccc1-n1cc(C(=O)[C@@H]2CCN(C[C@H]3CC[C@H](NS(C)(=O)=O)CC3)C2)c2ccncc21)C(C)C` [Example 4, 5-Fluoro-N,N-diisopropyl-2-(3-((R)-1-(((1r,4R)-4-(methylsulfonamido)-cyclohexyl)methyl)pyrrolidine-3-carbonyl)-1H-pyrrolo[2,3-c]pyridin-1-yl)benzamide] are 6.81, 6.65 and 6.88.
Turning to `CCN(C(=O)c1cc(F)ccc1-n1cc(C(=O)C2CN(C(=O)[C@H]3N[C@@H]4CC[C@H]3C4)C2)c2ccncc21)C(C)C` [Example 8, 2-(3-(1-((1R,3S,4S)-2-Azabicyclo[2.2.1]heptane-3-carbonyl)azetidine-3-carbonyl)-1H-pyrrolo[2,3-c]pyridin-1-yl)-N-ethyl-5-fluoro-N-isopropylbenzamide], the pIC50 is 6.85 in the experiment with MOLM-13 cells (Homo sapiens, MOLM-13, 168 h); 6.71 in the experiment on OCI-AML3 cells (Homo sapiens, OCI-AML-3, 168 h); 7.00 in the experiment with MV4;11 cells (Homo sapiens, MV4-11, 168 h). Further, the pKi at muscarinic M2 receptor was 5.10.
For the compound `CCN(C(=O)c1cc(F)ccc1-n1cc(C(=O)C2CN(C(=O)[C@H]3NC4CCC3CC4)C2)c2ccncc21)C(C)C` [Example 9, (S)-2-(3-(1-(2-Azabicyclo[2.2.2]octane-3-carbonyl)azetidine-3-carbonyl)-1H-pyrrolo[2,3-c]pyridin-1-yl)-N-ethyl-5-fluoro-N-isopropylbenzamide], the pIC50 was 6.92 with MOLM-13 cells (Homo sapiens, MOLM-13, 168 h); 6.65 in the experiment with OCI-AML3 cells (Homo sapiens, OCI-AML-3, 168 h); 7.00 with MV4;11 cells (Homo sapiens, MV4-11, 168 h).
As for `CC(C)c1cnccc1-c1cc(F)ccc1-n1cc(C(=O)C2CN(C(=O)[C@H]3N[C@@H]4CC[C@H]3C4)C2)c2ccncc21.O=CO` [Example 11, (1-((1R,3S,4S)-2-Azabicyclo[2.2.1]heptane-3-carbonyl)azetidin-3-yl)(1-(4-fluoro-2-(3-isopropylpyridin-4-yl)phenyl)-1H-pyrrolo[2,3-c]pyridin-3-yl)methanone 1·formic acid], the pIC50 was 7.30 in the experiment with MOLM-13 cells (Homo sapiens, MOLM-13, 168 h); 7.29 with OCI-AML3 cells (Homo sapiens, OCI-AML-3, 168 h); 7.51 in the experiment on MV4;11 cells (Homo sapiens, MV4-11, 168 h). The compound also had a pKi at muscarinic M2 receptor of 5.30.
`CC(C)(F)c1ncccc1-c1cc(F)ccc1-n1cc(C(=O)C2CN(C(=O)[C@H]3N[C@@H]4CC[C@H]3C4)C2)c2ccncc21` [Example 13, (1-((1R,3S,4S)-2-Azabicyclo[2.2.1]heptane-3-carbonyl)azetidin-3-yl)(1-(4-fluoro-2-(2-(2-fluoropropan-2-yl)pyridin-3-yl)phenyl)-1H-pyrrolo[2,3-c]pyridin-3-yl)methanone]: the negative logarithm of the IC50 (pIC50) in the experiment on MOLM-13 cells (Homo sapiens, MOLM-13, 168 h) is 7.29; in the experiment with OCI-AML3 cells (Homo sapiens, OCI-AML-3, 168 h) it was 7.43; in the experiment on MV4;11 cells (Homo sapiens, MV4-11, 168 h) it was 7.47. Further, the pKi on muscarinic M2 receptor was 5.01.
On the same counts, the results for `CC(C)N(C(=O)c1cc(F)ccc1-n1cc(C(=O)C2CN(C(=O)[C@H]3N[C@@H]4CC[C@H]3C4)C2)c2ccnc(F)c21)C(C)C` [Example 15, 2-(3-(1-((1R,3S,4S)-2-Azabicyclo[2.2.1]heptane-3-carbonyl)azetidine-3-carbonyl)-7-fluoro-1H-pyrrolo[2,3-c]pyridin-1-yl)-5-fluoro-N,N-diisopropylbenzamide] are 7.01, 6.99, 7.28 and 4.87.
As for `CC(C)N(C(=O)c1cc(F)ccc1-n1cc(C(=O)C2CCN(C[C@H]3CC[C@H](NS(C)(=O)=O)CC3)CC2)c2ccncc21)C(C)C` [Example 17, 5-Fluoro-N,N-diisopropyl-2-(3-(1-(((1r,4r)-4-(methylsulfonamido)cyclohexyl)-methyl)piperidine-4-carbonyl)-1H-pyrrolo[2,3-c]pyridin-1-yl)benzamide], the pIC50 with MOLM-13 cells (Homo sapiens, MOLM-13, 168 h) is 6.97; in the experiment with OCI-AML3 cells (Homo sapiens, OCI-AML-3, 168 h) it was 6.45; in the experiment on MV4;11 cells (Homo sapiens, MV4-11, 168 h) it was 6.49.
Turning to `CC(C)N(C(=O)c1cc(F)ccc1-n1cc(C(=O)C2CCN(C(=O)[C@@H]3CCC4(CC4)N3)CC2)c2ccncc21)C(C)C` [Example 24, (S)-2-(3-(1-(4-Azaspiro[2.4]heptane-5-carbonyl)piperidine-4-carbonyl)-1H-pyrrolo[2,3-c]pyridin-1-yl)-5-fluoro-N,N-diisopropylbenzamide], the pIC50 in the experiment with MOLM-13 cells (Homo sapiens, MOLM-13, 168 h) was 7.49; in the experiment with OCI-AML3 cells (Homo sapiens, OCI-AML-3, 168 h), 7.68; with MV4;11 cells (Homo sapiens, MV4-11, 168 h), 7.70. The compound further showed a pKi at muscarinic M2 receptor of 5.92.
`CC(C)N(C(=O)c1cc(F)ccc1-n1cc(C(=O)C2CCN(C(=O)[C@@H]3CC4(CC4)CN3)CC2)c2ccncc21)C(C)C` [Example 26, (S)-2-(3-(1-(5-Azaspiro[2.4]heptane-6-carbonyl)piperidine-4-carbonyl)-1H-pyrrolo[2,3-c]pyridin-1-yl)-5-fluoro-N,N-diisopropylbenzamide]: the pIC50 in the experiment with MOLM-13 cells (Homo sapiens, MOLM-13, 168 h) was 6.99; with OCI-AML3 cells (Homo sapiens, OCI-AML-3, 168 h), 6.85; in the experiment on MV4;11 cells (Homo sapiens, MV4-11, 168 h) it was 7.30. At muscarinic M2 receptor, this compound gave a pKi of 5.59.
In the case of `CCN(C(=O)c1cc(F)ccc1-n1cc(C(=O)C2CCN(C(=O)[C@H]3N[C@H]4C[C@@H]3[C@@H](F)C4)CC2)c2ccncc21)C(C)C` [Example 30, N-Ethyl-5-fluoro-2-(3-(1-((1S,3S,4S,5S)-5-fluoro-2-azabicyclo[2.2.1]heptane-3-carbonyl)piperidine-4-carbonyl)-1H-pyrrolo[2,3-c]pyridin-1-yl)-N-isopropylbenzamide], the pIC50 in the experiment on MOLM-13 cells (Homo sapiens, MOLM-13, 168 h) is 7.36; with OCI-AML3 cells (Homo sapiens, OCI-AML-3, 168 h) it was 7.23; in the experiment on MV4;11 cells (Homo sapiens, MV4-11, 168 h) it was 7.48.
